Experiment [1] relates to NPRA. Description: [35S]ATPγS incorporation into NPRA (receptor phosphorylation) in CFs. As to conditions: ANP 5 minutes, KT5823 1 μM or expressed fragment. The experiment is classed as cell-based, rat. On the procedure:
To identify receptor phosphorylation by PKG, ^[35S]ATPγS was employed as a substrate. [^35S] incorporation into NPRA was analyzed according to the method previously described (Joubert et al., Biochem. 40:11096-105, 2001). Briefly, the treated CFs were scraped into 100 μl ice-cold incubation buffer (25 mM HEPES, pH 7.4, 50 mM NaCl, 5 mM MgCl2, 0.2 μM okadaic acid, 1 mM Na3VO4, 10 mM NaH2PO4, 10 mM NaF, and protease inhibitors (complete mini-tablet, Roche) and lysed by repeated passage through a 22-gauge needle. Lysates were added to incubation buffer containing 1 μCi [^35S]ATPγS (specific activity >1000 Ci/mmol), final volume of 200 μl, incubated at 37° C. for 30 minutes. Proteins were analyzed by SDS-PAGE (7.5%) and subsequent autoradiography.

The test system of experiment [2] is NPRA. Description: [35S]ATPγS NPRA phosphorylation in HEK293 / HEK-NPRA cells. In kind it is cell-based. Particulars: HEK293 that overexpress NPRA. The procedure:
To ensure that the 137-kD phosphorylation band observed in the CFs after ANP treatment was, in fact, NPRA, HEK293 or HEK-NPRA were treated with ANP with or without KT5823 as described above. The lysates were divided into two aliquots. One aliquot was incubated with [^35S] ATPγS and then separated by SDS-PAGE, blotted to Immobilon membranes, and visualized by autoradiography. The other aliquot was separated similarly and then probed with anti-NPRA antisera, stripped and re-probed with anti-α-tubulin to assure equal protein loading. Robust phosphorylation of a 137-kD protein occurred in the NPRA-expressing cells, but not in control cells (FIG. 6B). Since both KT5823 and sNRF^(806-1061) inhibit cytosolic-to-plasma membrane translocation of PKG, PKG-NPRA association appears to be required for PKG-induced NPRA phosphorylation.

Another experiment concerns the target T1, PKG (Homo sapiens, UniProt Q13976).
T1 construct: endogenous in cells; host or cells: HEK293 stably over-expressing FLAG-NPRA (HEK-NPRA)
T1 sequence (Q13976 1-671): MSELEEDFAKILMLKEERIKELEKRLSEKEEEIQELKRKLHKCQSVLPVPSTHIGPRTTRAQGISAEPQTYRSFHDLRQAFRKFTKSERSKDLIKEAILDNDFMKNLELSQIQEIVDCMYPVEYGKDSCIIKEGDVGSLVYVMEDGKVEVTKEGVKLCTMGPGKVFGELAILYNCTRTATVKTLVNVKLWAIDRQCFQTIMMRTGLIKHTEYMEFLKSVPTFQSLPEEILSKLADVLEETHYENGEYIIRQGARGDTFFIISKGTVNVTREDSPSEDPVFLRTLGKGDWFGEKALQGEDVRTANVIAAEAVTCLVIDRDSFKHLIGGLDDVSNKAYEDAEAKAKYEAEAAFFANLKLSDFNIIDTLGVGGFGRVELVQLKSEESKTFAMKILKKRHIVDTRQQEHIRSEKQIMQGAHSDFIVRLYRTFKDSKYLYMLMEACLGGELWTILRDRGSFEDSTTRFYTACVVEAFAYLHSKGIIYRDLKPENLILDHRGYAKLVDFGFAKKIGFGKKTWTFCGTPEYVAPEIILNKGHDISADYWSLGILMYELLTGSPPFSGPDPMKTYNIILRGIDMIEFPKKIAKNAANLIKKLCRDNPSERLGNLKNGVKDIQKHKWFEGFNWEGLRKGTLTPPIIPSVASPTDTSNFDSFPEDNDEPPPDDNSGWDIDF
Particulars: earlier observation, Airhart et al. 2003; cited from earlier work.

The text below walks through data of patent US7943296B2, “Methods of screening using a natriuretic peptide receptor” (Oregon Health & Science University, priority 2005, dated 2011).

Molecules are shown by their SMILES.

Take `COC(=O)[C@@]1(OC)C[C@H]2O[C@]1(C)n1c3ccccc3c3c4c(c5c6ccccc6n2c5c31)C(=O)N(C)C4` [KT5823]: the “ANP-induced NPRA phosphorylation” value in the experiment with NPRA [1] is reported as “reduced ANP-induced NPRA phosphorylation to control levels”. For the same molecule, the “NP-dependent phosphorylation of NPRA” value with NPRA [2] was “inhibited”. Also, the PKG translocation result at PKG was “inhibits PKG translocation”.
